Results: patent US5861481A, “Peptide lung surfactants and therapeutic combinations” (Merrell Pharmaceuticals Inc., priority 1997, dated 1999)

Tested on: adult rat lavaged lungs
Assay: Isolated rat lavaged lung model (pressure-volume curves)
Protocol: Preparation of Artificial Surfactants. For triplicate samples of the synthetic lung surfactants 75 mg of DPPC (L-α-dipalmitoylphosphatidylcholine; >99% pure; Avanti Polar Lipids, Birmingham, Ala.) in 1 ml of chloroform were dried under a stream of nitrogen and placed in a lyophilizer overnight to remove traces of organic solvent. To the dry lipid mixture were added 9 ml of water. The preparation was incubated for 1 hr at 45°-50° C. with occasional vortexing. Then, in some samples, […] of dry test peptide were added to the aqueous preparation. The preparations were mildly sonicated with and without peptide in a cleaning bath sonicator (Branson 1200) at 45°-50° C. for 2 h to promote peptide dispersion and peptide-lipid interactions. The resulting lipid-peptide mixtures were divided into three parts, lyophilized and stored at -20° C.
The experimental procedures for animal preparation, pressure-volume curve registration and lung lavage have been described by the rat lung model (Ikegami, et al., (1979) Pediatr. Res. 13, 777-780) as modified by McLean et al., Am. J. Physiol. (1992), L292-L300. Briefly, the lungs of adult rats were suspended in 0.9% saline at 37° C. were connected to a water manometer and an air-filled syringe by a T-tube. The deflation limb of a pressure-volume curve was recorded prior to lavage, after extensive lavage with 0.9% NaCl, 10 mM HEPES, pH 7.4 and after administration of surfactant mixtures in 2 ml of 0.9% NaCl, 10 mM HEPES buffer, pH 7.40. The deflation limbs of the pressure-volume (P-V) curves in adult rat lungs were analyzed by calculating the total lung capacities (% TLC) at 5 and 10 cm H2 O pressure (PC5 and PC10). The per cent of total lung capacities at 5 and 10 cm of H2 O (PC5 and PC10) were measured after addition of the synthetic lung surfactants to adult rat lavaged lungs at a dose of 25 mg of lipid (32 umoles) and 1 mg of peptide. Restorations are based on PC5. […] Comparisons were based on restoration,i.e. for PC5, ([…])×100%/(PC5.sbsb.(sufficient) -PC5.sbsb.(deficient)) and made by one-way analysis of variance using the GLM procedure with specific contrasts of the means (SAS Institute Inc., Cary, N.C.).
References, consisting of DPPC alone and dog lung surfactant, respectively,were employed as reference standards: Reference I was prepared as follows. DPPC was purchased from Avanti Polar Lipids. 25 mg of DPPC in chloroform was dried under a stream of nitrogen and lyophilized to remove traces of organic solvent. To the dry lipid mixture was added 3 ml of water. The preparation was incubated at 45° C. for 1 hour with ultrasonication in a bath sonicator. The lipid was lyophilized, stored at 4° C. for up to one week and mixed with 9 ml of 0.9% NaCl, 20 mM HEPES buffer, pH 7.40. […]

[1] = deflation limb of P-V curve, adult rat lavaged lungs, dose 25 mg lipid and 1 mg peptide, mean ± S.E.

For CCCCCCCCCCCCCCCC(=O)OC[C@H](COP(=O)([O-])OCC[N+](C)(C)C)OC(=O)CCCCCCCCCCCCCCC [Reference I, L-α-dipalmitoylphosphatidylcholine], the “effect on improving the compliance of the rat lung” value (adult rat lung model, stated in words) was “no effect”, the “Restoration (%)” value (based on PC5 relative to sufficient and deficient lungs, mean ± S.E.) was -11 ± 8% and the “PC5 (% TLC), per cent of total lung capacity at 5 cm H2O” value [1] was 13 ± 1 % TLC. The “PC10 (% TLC), per cent of total lung capacity at 10 cm H2O” value [1] was 31 ± 2 % TLC.
